# Molecular target: T1, HPK1 (Homo sapiens, UniProt Q92918)
# T1 construct: purchased Invitrogen
# Test: HPK1 biochemical enzyme assay (microfluidic mobility shift assay)
# Settings: 1000 uM (1 mM) ATP; Caliper mobility shift; 1.5 nM HPK1; 30 min preincubation; read-out: HPK1 1000UMATP caliper IC50
# Method in brief: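 IC50 values, grouped into activity categories, come from 10-point titrations (top final 3 μM) preincubated 30 min with 1.5 nM enzyme and substrate at pH 7.4. ATP (1 mM), substrate (1 μM) and MgCl2 (5 mM) then added; after 60 min at RT, product separated by microfluidic mobility shift.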
# T1 sequence (Q92918 whole entry): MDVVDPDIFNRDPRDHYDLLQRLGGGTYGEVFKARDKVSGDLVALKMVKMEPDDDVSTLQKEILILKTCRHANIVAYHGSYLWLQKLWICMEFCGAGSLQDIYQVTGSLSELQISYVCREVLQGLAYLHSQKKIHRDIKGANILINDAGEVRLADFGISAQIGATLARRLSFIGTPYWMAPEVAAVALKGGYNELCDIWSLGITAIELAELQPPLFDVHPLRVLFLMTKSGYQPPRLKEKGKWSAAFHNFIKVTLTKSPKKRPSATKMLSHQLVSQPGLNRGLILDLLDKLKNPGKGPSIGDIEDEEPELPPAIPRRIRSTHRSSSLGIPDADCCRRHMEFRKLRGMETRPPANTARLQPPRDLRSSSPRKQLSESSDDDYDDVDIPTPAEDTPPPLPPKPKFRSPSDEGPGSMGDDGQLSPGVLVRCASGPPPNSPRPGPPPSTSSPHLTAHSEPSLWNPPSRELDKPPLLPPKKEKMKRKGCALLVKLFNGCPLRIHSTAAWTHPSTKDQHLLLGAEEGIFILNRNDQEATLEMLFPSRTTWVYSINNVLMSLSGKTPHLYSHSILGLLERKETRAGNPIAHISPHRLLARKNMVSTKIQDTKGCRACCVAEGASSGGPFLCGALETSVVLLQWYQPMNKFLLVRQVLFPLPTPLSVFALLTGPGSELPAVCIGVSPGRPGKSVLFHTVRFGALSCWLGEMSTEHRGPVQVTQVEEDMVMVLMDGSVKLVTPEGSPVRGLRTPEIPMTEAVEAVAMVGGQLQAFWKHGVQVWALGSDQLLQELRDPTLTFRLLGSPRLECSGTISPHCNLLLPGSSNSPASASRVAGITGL
row,Structure (SMILES),IC50 [nM]
1,"O=C(Nc1ccc(-c2cc(Nc3ccc(N4CCC(F)(F)CC4)cn3)c3c(=O)[nH]ccc3n2)c(F)c1)C1CCCCC1 [I-172, N-[4-[4-[[5-(4,4-difluoro-1-piperidyl)-2-pyridyl]amino]-5-oxo-6H-1,6-naphthyridin-2-yl]-3-fluoro-phenyl] cyclohexane-carboxamide]",> 1000
2,"O=C(Nc1ccc(-c2cc(Nc3ccc(N4C[C@H]5CC[C@@H](C4)O5)cn3)c3c(=O)[nH]ccc3n2)c(F)c1)C1CCCCC1 [I-173, N-[3-fluoro-4-[4-[[5-[(1R,5S)-8-oxa-3-azabicyclo [3.2.1]octan-3-yl]-2-pyridyl]amino]-5-oxo-6H-1,6-naphthyridin-2-yl]phenyl]-cyclohexane-carboxamide]",100 to 1000
3,"COc1cc(-c2cc(Nc3ccc(N4CC(F)(F)C4)cn3)c3c(=O)[nH]ccc3n2)c(F)cc1C(=O)N1CCCCC1 [I-174, 4-[[5-(3,3-difluoro-azetidin-1-yl)-2-pyridyl]amino]-2-[2-fluoro-5-methoxy-4-(piperidine-1-carbonyl)phenyl]-6H-1,6-naphthyridin-5-one]",> 1000
4,"COc1cc(-c2cc(Nc3ccc(N4CCNCC4)cn3)c3c(=O)[nH]ccc3n2)c(F)cc1C(=O)N1CCC1 [I-175, 2-[4-(azetidine-1-carbonyl)-2-fluoro-5-methoxy-phenyl]-4-[(5-piperazin-1-yl-2-pyridyl)amino]-6H-1,6-naphthyridin-5-one]",100 to 1000
5,"COc1cc(-c2cc(Nc3ccc(N4CCNCC4)cn3)c3c(=O)[nH]ccc3n2)c(F)cc1C(=O)N(C)C [I-176, 5-fluoro-2-methoxy-N,N-dimethyl-4-[5-oxo-4-[(5-piperazin-1-yl-2-pyridyl)amino]-6H-1,6-naphthyridin-2-yl] benzamide]",≤ 100
6,"O=c1[nH]ccc2nc(-c3cc(CN4CCCC4)ccc3F)cc(Nc3ccc(N4CCC(O)CC4)cn3)c12 [I-177, 2-[2-fluoro-5-(pyrrolidin-1-ylmethyl)phenyl]-4-[[5-(4-hydroxy-1-piperidyl)-2-pyridyl]amino]-6H-1,6-naphthyridin-5-one]",≤ 100
7,"Cc1nc2cc(-c3cc(Nc4ccc(N5CCNCC5)cn4)c4c(=O)[nH]ccc4n3)c(F)cc2o1 [I-178, 2-(6-fluoro-2-methyl-1,3-benzoxazol-5-yl)-4-[(5-piperazin-1-yl-2-pyridyl)amino]-6H-1,6-naphthyridin-5-one]",100 to 1000
8,"O=C(Nc1ccc(-c2cc(Nc3ccc(N4CCC(O)CC4)cn3)c3c(=O)[nH]ccc3n2)c(F)c1)C1CC2CCC1C2 (stereo not drawn) [I-179, N-[3-fluoro-4-[4-[[5-(4-hydroxy-1-piperidyl)-2-pyridyl]amino]-5-oxo-6H-1,6-naphthyridin-2-yl]phenyl] norbornane-2-carboxamide]",100 to 1000
9,"CN1CCN(Cc2ccc(-c3cc(Nc4ccc(N5CCC(O)CC5)cn4)c4c(=O)[nH]ccc4n3)c(F)c2)CC1 [I-180, 2-[2-fluoro-4-[(4-methyl-piperazin-1-yl)methyl]phenyl]-4-[[5-(4-hydroxy-1-piperidyl)-2-pyridyl]amino]-6H-1,6-naphthyridin-5-one]",≤ 100
10,"O=c1[nH]ccc2nc(-c3ccc(CN4CCOCC4)cc3F)cc(Nc3ccc(N4CCC(O)CC4)cn3)c12 [I-181, 2-[2-fluoro-4-(morpholino-methyl)phenyl]-4-[[5-(4-hydroxy-1-piperidyl)-2-pyridyl]amino]-6H-1,6-naphthyridin-5-one]",> 1000
11,"Cc1nc2cc(-c3cc(Nc4ccc(N5CCC(O)CC5)cn4)c4c(=O)[nH]ccc4n3)c(F)cc2o1 [I-182, 2-(6-fluoro-2-methyl-1,3-benzoxazol-5-yl)-4-[[5-(4-hydroxy-1-piperidyl)-2-pyridyl]amino]-6H-1,6-naphthyridin-5-one]",> 1000
12,"O=c1[nH]ccc2nc(-c3cccc(CN4CCCCC4)c3F)cc(Nc3ccc(N4CCC(O)CC4)cn3)c12 [I-183, 2-[2-fluoro-3-(1-piperidyl-methyl)phenyl]-4-[[5-(4-hydroxy-1-piperidyl)-2-pyridyl]amino]-6H-1,6-naphthyridin-5-one]",≤ 100
13,"CN1CCN(c2ccc(Nc3cc(-c4ccc(NC(=O)C5CCCCC5)cc4F)nc4cc[nH]c(=O)c34)nc2)CC1 [I-184, N-[3-fluoro-4-[4-[[5-(4-methyl-piperazin-1-yl)-2-pyridyl]amino]-5-oxo-6H-1,6-naphthyridin-2-yl]phenyl] cyclohexane carboxamide]",> 1000
14,"COc1cccc(F)c1-c1cc(Nc2ccc(N3CCC(O)CC3)cn2)c2c(=O)[nH]ccc2n1 [I-185, 2-(2-fluoro-6-methoxy-phenyl)-4-[[5-(4-hydroxy-1-piperidyl)-2-pyridyl]amino]-6H-1,6-naphthyridin-5-one]",100 to 1000
15,"CC(C)Oc1cc(-c2cc(Nc3ccc(N4CCC(O)CC4)cn3)c3c(=O)[nH]ccc3n2)c(F)cc1C(=O)N1CCCCC1 [I-186, 2-[2-fluoro-5-isopropoxy-4-(piperidine-1-carbonyl)phenyl]-4-[[5-(4-hydroxy-1-piperidyl)-2-pyridyl]amino]-6H-1,6-naphthyridin-5-one]",≤ 100
16,"COc1cc(-c2cc(Nc3ccc(N4CCNCC4)cn3)c3c(=O)[nH]ccc3n2)ccc1C(=O)N1CCCCC1 [I-187, 2-[3-methoxy-4-(piperidine-1-carbonyl)phenyl]-4-[(5-piperazin-1-yl-2-pyridyl)amino]-6H-1,6-naphthyridin-5-one]",100 to 1000
17,"COCCOC1CN(c2ccc(Nc3cc(-c4cc(OC)c(C(=O)N5CCCCC5)cc4F)nc4cc[nH]c(=O)c34)nc2)C1 [I-188, 2-[2-fluoro-5-methoxy-4-(piperidine-1-carbonyl)phenyl]-4-[[5-[3-(2-methoxy-ethoxy)azetidin-1-yl]-2-pyridyl]amino]-6H-1,6-naphthyridin-5-one]",≤ 100
18,"COCCOC1CN(c2ccc(Nc3cc(-c4ccc(NC(=O)C5CCCCC5)cc4F)nc4cc[nH]c(=O)c34)nc2)C1 [I-189, N-[3-fluoro-4-[4-[[5-[3-(2-methoxy-ethoxy)azetidin-1-yl]-2-pyridyl]amino]-5-oxo-6H-1,6-naphthyridin-2-yl]phenyl] cyclohexane carboxamide]",100 to 1000
19,"COc1cc(-c2cc(Nc3ccc(N4[C@H](C)COC[C@H]4C)cn3)c3c(=O)[nH]ccc3n2)c(F)cc1C(=O)N1CCCCC1 [I-190, 4-[[5-[(3R, 5R)-3,5-dimethyl-morpholin-4-yl]-2-pyridyl]amino]-2-[2-fluoro-5-methoxy-4-(piperidine-1-carbonyl)phenyl]-6H-1,6-naphthyridin-5-one]",100 to 1000
20,"C[C@@H]1COC[C@@H](C)N1c1ccc(Nc2cc(-c3ccc(NC(=O)C4CCCCC4)cc3F)nc3cc[nH]c(=O)c23)nc1 [I-191, N-[4-[4-[[5-[(3R,5R)-3,5-dimethyl-morpholin-4-yl]-2-pyridyl]amino]-5-oxo-6H-1,6-naphthyridin-2-yl]-3-fluoro-phenyl] cyclohexane-carboxamide]",≤ 100
21,"O=c1[nH]ccc2nc(-c3cc4c(cc3F)CCC4O)cc(Nc3ccc(N4CCC(O)CC4)cn3)c12 (stereo not drawn) [I-192, 2-(6-fluoro-3-hydroxy-indan-5-yl)-4-[[5-(4-hydroxy-1-piperidyl)-2-pyridyl]amino]-6H-1,6-naphthyridin-5-one]",100 to 1000
22,"COc1cc(-c2cc(Nc3ccc(N4CCN(C)CC4)cn3)c3c(=O)[nH]ccc3n2)c(F)cc1C(=O)N1CCCCC1 [I-193, 2-[2-fluoro-5-methoxy-4-(piperidine-1-carbonyl)phenyl]-4-[[5-(4-methyl-piperazin-1-yl)-2-pyridyl]amino]-6H-napthyridin-5-one]",100 to 1000
23,"Cc1cc(-c2cc(Nc3ccc(N4CCC(O)CC4)cn3)c3c(=O)[nH]ccc3n2)c(F)cc1CN1CCCCC1 [I-194, 2-[2-fluoro-5-methyl-4-(1-piperidyl-methyl)phenyl]-4-[[5-(4-hydroxy-1-piperidyl)-2-pyridyl]amino]-6H-1,6-naphthyridin-5-one]",≤ 100
24,"COc1cc(-c2cc(Nc3ccc(N4CCC(O)CC4)cn3)c3c(=O)[nH]ccc3n2)ccc1C(=O)N1CCCCC1 [I-195, 4-[[5-(4-hydroxy-1-piperidyl)-2-pyridyl]amino]-2-[3-methoxy-4-(piperidine-1-carbonyl)phenyl]-6H-1,6-naphthyridin-5-one]",> 1000
25,"CCOc1cc(-c2cc(Nc3ccc(N4CCC(O)CC4)cn3)c3c(=O)[nH]ccc3n2)c(F)cc1C(=O)N1CCCCC1 [I-196, 2-[5-ethoxy-2-fluoro-4-(piperidine-1-carbonyl)phenyl]-4-[[5-(4-hydroxy-1-piperidyl)-2-pyridyl]amino]-6H-1,6-naphthyridin-5-one]",100 to 1000
26,"Cc1cc(-c2cc(Nc3ccc(N4CCNCC4)cn3)c3c(=O)[nH]ccc3n2)c(F)cc1NC(=O)C1CCCCC1 [I-197, N-[5-fluoro-2-methyl-4-[5-oxo-4-[(5-piperazin-1-yl-2-pyridyl)amino]-6H-1,6-naphthyridin-2-yl]phenyl] cyclohexane carboxamide]",100 to 1000
27,"COc1cc(-c2cc(Nc3ccc(C4CC4)cn3)c3c(=O)[nH]ccc3n2)c(F)cc1C(=O)N1CCCCC1 [I-198, 4-[(5-cyclopropyl-2-pyridyl)amino]-2-[2-fluoro-5-methoxy-4-(piperidine-1-carbonyl)phenyl]-6H-1,6-naphthyridin-5-one]",100 to 1000
28,"COc1cc(-c2cc(Nc3cnn(C)c3)c3c(=O)[nH]ccc3n2)c(F)cc1C(=O)N1CCCCC1 [I-199, 2-[2-fluoro-5-methoxy-4-(piperidine-1-carbonyl)phenyl]-4-[(1-methyl-pyrazol-4-yl)amino]-6H-1,6-naphthyridin-5-one]",100 to 1000
29,"CNC1CCc2cc(F)c(-c3cc(Nc4ccc(N5CCC(O)CC5)cn4)c4c(=O)[nH]ccc4n3)cc21 (stereo not drawn) [I-200, 2-[6-fluoro-3-(methyl-amino)indan-5-yl]-4-[[5-(4-hydroxy-1-piperidyl)-2-pyridyl]amino]-6H-1,6-naphthyridin-5-one]",≤ 100
30,"O=C(Nc1ccc(-c2cc(Nc3ccc(N4CC(F)(F)C4)cn3)c3c(=O)[nH]ccc3n2)c(F)c1)C1CCCCC1 [I-201, N-[4-[4-[[5-(3,3-difluoro-azetidin-1-yl)-2-pyridyl]amino]-5-oxo-6H-1,6-naphthyridin-2-yl]-3-fluoro-phenyl] cyclohexane-carboxamide]",≤ 100

# From patent US12252488B2 (Nimbus Saturn, Inc., priority 2021, dated 2025)
